Assays:
[1] = target: MAB AI-18; experiment: Competitive RIA: inhibition of MAB AI-18 binding to solid-phase Apo AI/HDL by competitor antigen or peptide; parameters: species or system mouse; conditions: competitive RIA; MAB AI-18 ascites 1:1.25×10^5; solid-phase Apo AI/HDL
Description: One hundred ul of PBS (0.15M NaCl, 0.01M NaPO4, pH 7.2) containing 10 ug/ml Apo AI/HDL were admixed to the wells of microtiter plates. The plates were maintained for 1 hour at 20 degrees C. on a rotating platform to allow the Apo AI/HDL to adhere to the wells and form solid supports. After aspirating excess liquid from the wells, 200 ul of block solution (3% BSA, 3% NGS in PBS) was admixed to each well, and the wells were maintained for 30 minutes at 20 degrees C. on a rotating platform. Subsequently, the blocking solution was removed by aspiration and the wells were washed 3 times with SPRIA buffer.
In control wells either competing antigen or antibody was replaced by PBS containing 3% BSA.
The immunoreaction admixtures were maintained about 16 hours at 4 degrees C. on a rotating platform to permit formation of solid-phase immunoreaction products. […] The labeling immunoreaction admixtures so formed were maintained for 4 hours at 4 degrees C. on a rotating platform.
[…] of serial 3 fold dilutions of each sample prepared in Table 3 were admixed as competitor in the RIA described in this Example.
Fifty microliters of the stock of 2 fold serial dilutions of the stock were used as competitor in the RIA described in this Example.

[2] = test system: MAB AI-18; experiment: Solid-phase polypeptide competitive ELISA (AI90-105 coated wells, HRP-type labeled MAB AI-18); type: binding, mouse; conditions: reference material: pool of about 20 normal plasmas; FIG. 8
Description: Six hundred microliters of 25 mM NH4 HCO3, pH 9.6, containing polypeptide AI90-105 at a concentration of 5 mg/ml were admixed with 119.4 ml of 0.1M NaHC)3, pH 9.0, to form a peptide coating solution. One hundred fifty microliters of the coating solution were admixed into the wells of flexible polyvinyl chloride microtiter plates (Nunc, Source). The wells were then maintained about 16-20 hours at 4 degrees C. to permit the peptide to adsorb onto (coat) the walls of the wells. After removing the peptide coating solution by shaking, the wells were washed once with 350 ul of rinsing buffer (PBS containing 1 gm/l BSA, 0.5 ml/l Tween 20, and 2 ul/l aprotinin). Excess protein binding sites were blocked by admixing 200 ul of blocking buffer (PBS containing 3% BSA) into each well, maintaining the wells for 1 hour at 20 degrees C., removing the blocking buffer by shaking, and then washing the wells 3 times as previously described. […]
Two hundred microliters of OPD substrate were then admixed into each well to form a developing-reaction admixture, which was maintained for 30 minutes at about 20 degrees C. Subsequently, 50 ul of 4N H2 SO4 were admixed into each well to stop the developing-reaction, and the resulting solution were assayed for absorbance at 490 nanometers using a microtiter plate reader (Dynatech). […]

LEEVKAKVQPYLDDFQ [AI90-105]
Immunoreactivity (concentration of peptide competitor required to achieve a B/Bo value of 0.5) [1]: 30 ug protein/ml
immunoreactivity of MAB AI-18 for peptide compared with reference material [2]: equivalent immunoreactivities

Reference: patent US5055396A, “Diagnostic methods and systems for quantifying APO AI” (Scripps Clinic and Research Foundation, priority 1987, dated 1991)
